The values below come from US20120225862A1, “HETEROARYL BENZAMIDES, COMPOSITIONS AND METHODS OF USE” (AUCKLAND UNIVSERVICES LIMITED, priority 2009, published 2012).

One test concerns RCC4/VHL. In words: XTT IC50 assay, selectivity RCC4 versus RCC4 with VHL-reintroduced. It is filed as cell-based, human. To be noted: selectivity ratio of XTT IC50 values, RCC4 vs RCC4/VHL. The procedure: (§1) RCC4 parental and RCC4 with VHL-reintroduced (RCC4/VHL), SN12C and SN12C-CSCG-VHL shRNA were maintained in DMEM supplemented with 10% FCS.
(§2) IC50 values for compounds were determined by XTT assay. For 2,3-bis[2-methoxy-4-nitro-5-sulfophenyl]-2H-tetrazolium-5-carboxanilide inner salt (XTT) assays, five thousand cells were plated in 96-well plates. The next day, vehicle or drug was added to each well and incubated for four days. Media was aspirated and phenol red-free medium with 0.3 mg/mL XTT and 2.65 ug/mL N-methyl dibenzopyrazine methyl sulfate was added. This was incubated at 37° C. for 1-2 hours and absorbance was read at 450 nm. IC50 values for each compound were calculated using linear interpolation.
(§3) For 2,3-bis[2-methoxy-4-nitro-5-sulfophenyl]-2H-tetrazolium-5-carboxanilide (XTT) assays, five thousand cells were plated in 96-well plates. The next day, vehicle (DMSO) or drug was added by serial dilution. Four days later, media were aspirated, XTT solution (0.3 mg/ml of XTT (Sigma), 2.65 mg/ml N-methyl dibenxopyrazine methyl sulfate (Simga) in phenol red-free media) was added, and the plates were incubated at 37° C. for 1-2 hours. Metabolism of XTT was quantified by measuring the absorbance at 450 nm. IC50s were calculated using linear interpolation. For clonogenic survival assays, three hundred cells were plated per 60 mm tissue culture dish. The cells were allowed to attach overnight and then treated with vehicle or drug for 14 days. Colonies were fixed and stained with crystal violet (0.1% crystal violet in 95% ethanol). All conditions were measured in triplicate and each experiment was done in duplicate or triplicate. To determine necrosis, cells were treated with drug for a given time point. Media and cells were collected, centrifugated, and resuspended in 0.4% trypan blue (Invitrogen). Live and dead cells were counted on a hematocytometer.

The next test relates to RCC4. In words: XTT IC50 / viability assay, RCC4 cells. Particulars: Homo sapiens, RCC4, 96 h; XTT assay, four days. It is filed as cell-based, human. The procedure:
as §1, §2, §3
Background: Tetrazolium dyes change colour on reduction, which living cells bring about.

What is called IC50 is the concentration at which inhibition is half-maximal. A low value points to higher potency. As to `O=C(Nc1cccnc1)c1ccc(CNS(=O)(=O)c2ccc(Cc3ccccc3)cc2)cc1` [Example 135, 4-({[(4-Benzylphenyl)sulfonyl]amino}methyl)-N-(3-pyridinyl)benzamide], the “Ratio (RCC4:RCC/VHL)” value with RCC4/VHL is “b (“b” reflects from 10 to 100)”. For the same compound, in the test on RCC4, the 50% inhibitory concentration (IC50) is under 1000 nM.
In the same order, the values of `CC(C)(C)c1ccc(S(=O)(=O)NCc2ccc(C(=O)Nc3cnccc3C(F)(F)F)cc2)cc1` [Example 122, 4-({[(4-tert-Butylphenyl)sulfonyl]amino}methyl)-N-[4-(trifluoromethyl)-3-pyridinyl]benzamide] are “a (“a” reflects a ratio of RCC4/RCC-VHL+ ranging from 1 to 10)” and 1000 to 20000 nM.
On the same counts, the results for `CC(C)(C)c1ccc(S(=O)(=O)NCc2ccc(C(=O)Nc3cnccc3Cl)cc2)cc1` [Example 112, 4-({[(4-tert-Butylphenyl)sulfonyl]amino}methyl)-N-(4-chloro-3-pyridinyl)benzamide] are “a (“a” reflects a ratio of RCC4/RCC-VHL+ ranging from 1 to 10)” and over 20000 nM.
In the same order, the values of `Cc1ccccc1S(=O)(=O)NCc1ccc(C(=O)Nc2cccnc2)cc1` [Example 10, 4-((2-Methylphenylsulfonamido)methyl)-N-(pyridin-3-yl)benzamide] are “a (“a” reflects a ratio of RCC4/RCC-VHL+ ranging from 1 to 10)” and 1000 to 20000 nM.
`O=C(Nc1cccnc1)c1ccc(CNS(=O)(=O)c2cccc(Cl)c2)cc1` [Example 21, 4-((3-Chlorophenylsulfonamido)methyl)-N-(pyridin-3-yl)benzamide]: in the test on RCC4/VHL, the “Ratio (RCC4:RCC/VHL)” value is given as “b (“b” reflects from 10 to 100)”. Also, the half-maximal inhibitory concentration (IC50) in the test on RCC4 was under 1000 nM.
On to `Cc1cccc(S(=O)(=O)NCc2ccc(C(=O)Nc3cccnc3)cc2)c1` [Example 19, 4-((3-Methylphenylsulfonamido)methyl)-N-(pyridin-3-yl)benzamide], for which the “Ratio (RCC4:RCC/VHL)” value with RCC4/VHL is reported as “b (“b” reflects from 10 to 100)”. Moreover, in the test with RCC4, the 50% inhibitory concentration (IC50) was under 1000 nM.
In the same order, the values of `O=C(Nc1cccnc1)c1ccc(CNS(=O)(=O)c2ccc(CN3CCCCCC3)cc2)cc1` [Example 82, 4-[({[4-(1-Azepanylmethyl)phenyl]sulfonyl}amino)methyl]-N-(3-pyridinyl)benzamide] are “c (“c” reflects a ratio of >100)” and under 1000 nM.
Regarding `COc1ccc(S(=O)(=O)NCc2ccc(C(=O)Nc3cccnc3)cc2)cc1OC` [Example 61, 4-((3,4-Dimethoxyphenylsulfonamido)methyl)-N-(pyridin-3-yl)benzamide], the “Ratio (RCC4:RCC/VHL)” value in the test on RCC4/VHL is “c (“c” reflects a ratio of >100)”. For the same compound, the IC50 with RCC4 was under 1000 nM.
As to `CN(C)c1cccc2c(S(=O)(=O)NCc3ccc(C(=O)Nc4cccnc4)cc3)cccc12` [Example 73, 4-((5-(Dimethylamino)naphthalene-1-sulfonamido)methyl)-N-(pyridin-3-yl)benzamide], in the test with RCC4/VHL, the “Ratio (RCC4:RCC/VHL)” value is listed as “c (“c” reflects a ratio of >100)”. In addition, in the test on RCC4, the concentration for half-maximal inhibition (IC50) is under 1000 nM.
On the same counts, the results for `Cc1c(C)c(C)c(S(=O)(=O)NCc2ccc(C(=O)Nc3cccnc3)cc2)c(C)c1C` [Example 63, 4-((2,3,4,5,6-Pentamethylphenylsulfonamido)methyl)-N-(pyridin-3-yl)benzamide] are “b (“b” reflects from 10 to 100)” and under 1000 nM.
On the same counts, the results for `CC(C)(C)c1ccc(S(=O)(=O)NCc2ccc(C(=O)Nc3cccnc3Cl)cc2)cc1` [Example 113, 4-({[(4-tert-Butylphenyl)sulfonyl]amino}methyl)-N-(2-chloro-3-pyridinyl)benzamide] are “a (“a” reflects a ratio of RCC4/RCC-VHL+ ranging from 1 to 10)” and over 20000 nM.
`O=C(Nc1cccnc1)c1ccc(CNS(=O)(=O)c2cccc(N3CCOCC3)c2)cc1` [Example 126, 4-[({[3-(4-Morpholinyl)phenyl]sulfonyl}amino)methyl]-N-(3-pyridinyl)benzamide]: in the test with RCC4/VHL, the “Ratio (RCC4:RCC/VHL)” value was “b (“b” reflects from 10 to 100)”. Further, the IC50 with RCC4 fell in the range of 1000 to 20000 nM.
On the same counts, the results for `O=C(Nc1cccnc1)c1ccc(CNS(=O)(=O)c2ccc(Oc3ccccc3)cc2)cc1` [Example 35, 4-((4-Phenoxyphenylsulfonamido)methyl)-N-(pyridin-3-yl)benzamide] are “b (“b” reflects from 10 to 100)” and 1000 to 20000 nM.
On the same counts, the results for `CN(C)CCCc1ccc(S(=O)(=O)NCc2ccc(C(=O)Nc3cccnc3)cc2)cc1` [Example 142, 4-{[({4-[3-(Dimethylamino)propyl]phenyl}sulfonyl)amino]methyl}-N-(3-pyridinyl)benzamide] are “b (“b” reflects from 10 to 100)” and under 1000 nM.
In the case of `O=C(Nc1cccnc1)c1ccc(CNS(=O)(=O)c2ccc(-c3ccc(Cl)cc3)cc2)cc1` [Example 56, 4-({[(4′-Chloro[1,1′-biphenyl]-4-yl)sulfonyl]amino}methyl)-N-(3-pyridinyl)benzamide], the “Ratio (RCC4:RCC/VHL)” value in the test with RCC4/VHL is “b (“b” reflects from 10 to 100)”. Also, in the test on RCC4, the IC50 was in the range of 1000 to 20000 nM.
Regarding `O=C(Nc1cccnc1)c1ccc(CNS(=O)(=O)c2ccc(CCCN3CCOCC3)cc2)cc1` [Example 141, 4-{[({4-[3-(4-Morpholinyl)propyl]phenyl}sulfonyl)amino]methyl}-N-(3-pyridinyl)benzamide], the “Ratio (RCC4:RCC/VHL)” value in the test with RCC4/VHL was “c (“c” reflects a ratio of >100)”. This compound displayed an IC50 in the test with RCC4 of under 1000 nM.
In the same order, the values of `O=C(Nc1cccnc1)c1ccc(CNS(=O)(=O)c2ccc(NCCCN3CCOCC3)cc2)cc1` [Example 131, 4-({[(4-{[3-(4-Morpholinyl)propyl]amino}phenyl)sulfonyl]amino}methyl)-N-(3-pyridinyl)benzamide] are “b (“b” reflects from 10 to 100)” and under 1000 nM.
For the compound `O=C(Nc1cccnc1)c1ccc(CNS(=O)(=O)c2cccc(-c3ccccc3)c2)cc1` [Example 26, 4-{[([1,1′-Biphenyl]-3-ylsulfonyl)amino]methyl}-N-(3-pyridinyl)benzamide], in the test with RCC4/VHL, the “Ratio (RCC4:RCC/VHL)” value was “b (“b” reflects from 10 to 100)”. In addition, in the test on RCC4, the 50% inhibitory concentration (IC50) lay in the range of 1000 to 20000 nM.
Regarding `O=C(Nc1cccnc1)c1ccc(CNS(=O)(=O)c2ccc(N3CCOCC3)cc2)cc1` [Example 127, 4-[({[4-(4-Morpholinyl)phenyl]sulfonyl}amino)methyl]-N-(3-pyridinyl)benzamide], the “Ratio (RCC4:RCC/VHL)” value with RCC4/VHL is recorded as “b (“b” reflects from 10 to 100)”. The same compound returned a 50% inhibitory concentration (IC50) in the test with RCC4 of under 1000 nM.
`Cc1cc(C)cc(S(=O)(=O)NCc2ccc(C(=O)Nc3cccnc3)cc2)c1` [Example 66, 4-((3,5-Dimethylphenylsulfonamido)methyl)-N-(pyridin-3-yl)benzamide]: the “Ratio (RCC4:RCC/VHL)” value with RCC4/VHL was “c (“c” reflects a ratio of >100)”. The IC50 with RCC4 was under 1000 nM.
In the same order, the values of `Cc1nc(-c2cccc(S(=O)(=O)NCc3ccc(C(=O)Nc4cccnc4)cc3)c2)no1` [Example 30, 4-[({[3-(5-Methyl-1,2,4-oxadiazol-3-yl)phenyl]sulfonyl}amino)methyl]-N-(3-pyridinyl)benzamide] are “c (“c” reflects a ratio of >100)” and under 1000 nM.
On the same counts, the results for `Cc1ccc(S(=O)(=O)NCc2ccc(C(=O)Nc3cccnc3)cc2)cc1C` [Example 65, 4-((3,4-Dimethylphenylsulfonamido)methyl)-N-(pyridin-3-yl)benzamide] are “c (“c” reflects a ratio of >100)” and under 1000 nM.
